Results as given in PMC8698657, “Absorption and Transport Characteristics and Mechanisms of Carnosic Acid” (Biology, 2021).
Read-outs that look alike come from different tables or passages of the source.

Test: Trans-enterocyte transport of CA in Caco-2 cell monolayer
Format: in vitro ADME, human
Conditions: human
Description: Caco-2 were cultured in EMEM complete medium containing 10% FBS, 1% non-essential amino acids, and 1% penicillin-streptomycin double antibody, and the culture conditions were 37 °C, 5% CO2, in a constant temperature incubator [16]. We first established non-toxic dose ranges of CA in Caco-2 cells using MTT assay. Dimethylsulfoxide (DMSO) was used as the vehicle to deliver CA to the cells. The final concentration of DMSO in all experiments was 0.1% (v/v) in cell culture media. Caco-2 cells were seeded in a 96-well plate at a cell density of 5 × 10^4 cells/mL per well, and cultured under 5% CO2 and 37 °C for 24 h. A quantity of 200 μL of medium was added to each well to obtain a series of CA solutions (concentrations of 25, 50, 75, and 100 μmoL). After 48 h of treatment, Caco-2 cells were subjected to the MTT assay as described previously. For the transport study, Caco-2 cells were seeded on the apical compartment (AP) of 12-well Transwell plates at a density of 2 × 10^5 cells/mL. The complete culture medium was added into basolateral (BL) and AP compartments. The basolateral medium was replaced every other day.
CA was dissolved in HBSS solution at 50, 75, and 100 μM. The HBSS solution containing CA combined with 0.5% Tween 80, 5 mmol/L EDTA or 5% PEG 400 was prepared. The cumulative migration (Qr), apparent permeability coefficient (Papp), and the Papp value of bi-direction transport of CA were calculated according to formulas.
The 0.5 mL […] containing different concentrations of CA was added to the AP side of the 12-well Transwell plate, and 1.5 mL HBSS solution was added to the BL side. At 0, 0.5, 1, 1.5, 2, 2.5, and 3 h, 0.2 mL medium was taken from the BL side and stored at −80 °C. The TEER value of each Transwell chamber was measured.
The cryopreserved Transwell samples were transferred to a 15 mL centrifuge tube, and any remaining liquid was fully washed using 1 mL of 50% methanol solution which was also transferred to the 15 mL centrifuge tube. The mixture was vortexed for 1 min, and 6 mL of ethyl acetate solution was added to the tube and vortexed for another 2 min. The mixture was centrifuged at 6000 rpm/min at 4 °C for 10 min. The supernatant was dried under vacuum, dissolved in 5% phosphoric acid methanol solution, and filtered through a 0.22 μm microporous membrane. The concentration of CA was determined by HPLC as described above.

[1] = Caco-2, CA 75 μM, Average of 0.5-3.0 h
[2] = Caco-2, CA 100 μM, Average of 0.5-3.0 h

`CC(C)c1cc2c(c(O)c1O)[C@@]1(C(=O)O)CCCC(C)(C)[C@@H]1CC2` [CA, Carnosic acid] gave a Papp A→B at 2.5 h, 75 μM (Caco-2, CA 75 μM, 2.5 h, read-out: Papp AP-BL) of 0.83 ± 0.01 ×10⁻⁶ cm/s, a Papp B→A at 3 h, 75 μM (Caco-2, CA 75 μM, 3.0 h) of 0.38 ± 0.03 ×10⁻⁶ cm/s and an efflux ratio at 3 h, 75 μM (Caco-2, CA 75 μM, 3.0 h) of 0.61. For the same compound, the Papp A→B at 3 h, 75 μM (Caco-2, CA 75 μM, 3.0 h, CA alone, read-out: Papp AP to BL) was 0.62 ± 0.01 ×10⁻⁶ cm/s, the Papp A→B at 3 h, 75 μM (Caco-2, CA 75 μM, 3.0 h, read-out: Papp AP-BL) was 0.62 ± 0.01 ×10⁻⁶ cm/s and the Papp B→A at 75 μM [1] was 0.66 ± 0.06 ×10⁻⁶ cm/s. The efflux ratio at 75 μM [1] was 0.63, the Papp A→B at 75 μM (Caco-2, CA 75 μM, Average of 0.5-3.0 h, CA alone, read-out: Papp AP to BL) was 1.04 ± 0.02 ×10⁻⁶ cm/s and the Papp A→B at 75 μM (Caco-2, CA 75 μM, Average of 0.5-3.0 h, read-out: Papp AP-BL) was 1.04 ± 0.05 ×10⁻⁶ cm/s. For the same compound, the Papp B→A at 0.5 h, 100 μM (Caco-2, CA 100 μM, 0.5 h) was 0.39 ± 0.03 ×10⁻⁶ cm/s, the efflux ratio at 0.5 h, 100 μM (Caco-2, CA 100 μM, 0.5 h) was 0.35 and the Papp A→B at 0.5 h, 100 μM (Caco-2, CA 100 μM, 0.5 h, CA alone, read-out: Papp AP to BL) was 1.1 ± 0.1 ×10⁻⁶ cm/s. The Papp A→B at 0.5 h, 100 μM (Caco-2, CA 100 μM, 0.5 h, read-out: Papp AP-BL) was 1.1 ± 0.1 ×10⁻⁶ cm/s, the Papp B→A at 1 h, 100 μM (Caco-2, CA 100 μM, 1.0 h) was 0.56 ± 0.04 ×10⁻⁶ cm/s and the efflux ratio at 1 h, 100 μM (Caco-2, CA 100 μM, 1.0 h) was 0.42. It also gave a Papp A→B at 1 h, 100 μM (Caco-2, CA 100 μM, 1.0 h, CA alone, read-out: Papp AP to BL) of 1.32 ± 0.09 ×10⁻⁶ cm/s, a Papp A→B at 1 h, 100 μM (Caco-2, CA 100 μM, 1.0 h, read-out: Papp AP-BL) of 1.32 ± 0.09 ×10⁻⁶ cm/s and a Papp B→A at 1.5 h, 100 μM (Caco-2, CA 100 μM, 1.5 h) of 2.53 ± 0.03 ×10⁻⁶ cm/s. It also gave an efflux ratio at 1.5 h, 100 μM (Caco-2, CA 100 μM, 1.5 h) of 1.07, a Papp A→B at 1.5 h, 100 μM (Caco-2, CA 100 μM, 1.5 h, CA alone, read-out: Papp AP to BL) of 2.36 ± 0.08 ×10⁻⁶ cm/s and a Papp A→B at 1.5 h, 100 μM (Caco-2, CA 100 μM, 1.5 h, read-out: Papp AP-BL) of 2.36 ± 0.08 ×10⁻⁶ cm/s. For the same compound, the Papp B→A at 2 h, 100 μM (Caco-2, CA 100 μM, 2.0 h) was 1.33 ± 0.05 ×10⁻⁶ cm/s, the Papp A→B at 2 h, 100 μM (Caco-2, CA 100 μM, 2.0 h, CA alone, read-out: Papp AP to BL) was 0.87 ± 0.02 ×10⁻⁶ cm/s and the efflux ratio at 2 h, 100 μM (Caco-2, CA 100 μM, 2.0 h, read-out: Efflux Ratio) was 1.52. It also gave a Papp A→B at 2 h, 100 μM (Caco-2, CA 100 μM, 2.0 h, read-out: Papp AP-BL) of 0.87 ± 0.02 ×10⁻⁶ cm/s, a Papp B→A at 2.5 h, 100 μM (Caco-2, CA 100 μM, 2.5 h) of 1.45 ± 0.01 ×10⁻⁶ cm/s and an efflux ratio at 2.5 h, 100 μM (Caco-2, CA 100 μM, 2.5 h) of 1.7. It also gave a Papp A→B at 2.5 h, 100 μM (Caco-2, CA 100 μM, 2.5 h, CA alone, read-out: Papp AP to BL) of 0.85 ± 0.05 ×10⁻⁶ cm/s, a Papp A→B at 2.5 h, 100 μM (Caco-2, CA 100 μM, 2.5 h, read-out: Papp AP-BL) of 0.85 ± 0.05 ×10⁻⁶ cm/s and a Papp B→A at 3 h, 100 μM (Caco-2, CA 100 μM, 3.0 h) of 1.23 ± 0.03 ×10⁻⁶ cm/s. For the same compound, the efflux ratio at 3 h, 100 μM (Caco-2, CA 100 μM, 3.0 h) was 1.53, the Papp A→B at 3 h, 100 μM (Caco-2, CA 100 μM, 3.0 h, CA alone, read-out: Papp AP to BL) was 0.8 ± 0.09 ×10⁻⁶ cm/s and the Papp A→B at 3 h, 100 μM (Caco-2, CA 100 μM, 3.0 h, read-out: Papp AP-BL) was 0.8 ± 0.09 ×10⁻⁶ cm/s. The Papp B→A at 100 μM [2] was 1.24 ± 0.04 ×10⁻⁶ cm/s, the efflux ratio at 100 μM [2] was 1.03 and the Papp A→B at 100 μM (Caco-2, CA 100 μM, Average of 0.5-3.0 h, CA alone, read-out: Papp AP to BL) was 1.21 ± 0.03 ×10⁻⁶ cm/s. For the same compound, the Papp A→B at 100 μM (Caco-2, CA 100 μM, Average of 0.5-3.0 h, read-out: Papp AP-BL) was 1.2 ± 0.07 ×10⁻⁶ cm/s, the efflux ratio at 2 h, 100 μM (Caco-2, CA 100 μM, after 2-hour incubation, read-out: efflux ratios) was 1.52 to 1.7 and the efflux ratio (Caco-2, CA 50 and 75 μM, except 50 μM after 3-hour incubation, read-out: efflux ratios) was less than 1. It also gave a Papp A→B at 1 h, 75 μM (Caco-2, CA 75 μM, 1.0 h) of 1.08 ± 0.04 ×10⁻⁶ cm/s, a Papp B→A at 1 h, 75 μM (Caco-2, CA 75 μM, 1.0 h) of 0.86 ± 0.05 ×10⁻⁶ cm/s and an efflux ratio at 1 h, 75 μM (Caco-2, CA 75 μM, 1.0 h) of 0.79. The Papp (Caco-2, CA 50–100 μM, 0.5-3 h, read-out: Papp values in both the AP-BL and BL-AP directions) was 0.12 to 2.53 ×10⁻⁶ cm/s.
